{
  "source": "patent US4046765A",
  "about": "“Dihydroquinoline derivatives of antioxidant activity and a process for the preparation thereof” (priority 1971, dated 1977)",
  "key": {"[1]": {"assay": "antioxidant effect on fish-meal samples, oxygen uptake in Warburg apparatus and peroxide number", "details": "40 g. fish meal + 0.04 g. antioxidant; for oxygen uptake (decrease of O2 pressure): 29° C., Warburg apparatus, control 19.5; for Peroxide Number: calculated for 1 g. of fish meal, after treatment with oxygen, control 7.83", "protocol": "The antioxidant effect of the new substances shown in foodstuffs and nutriments was investigated on fish-meal samples. […] In these experiments the oxygen uptake of fish-meal samples containing the various antioxidants was determined in a Warburg apparatus at 29° C., and the results were compared with those measured on samples containing no antioxidant. The peroxide number of samples treated with oxygen was also determined."}, "[2]": {"system": "encephalomalacia of poultries", "details": "compared with EMQ; cited from earlier work"}, "[3]": {"details": "in vivo; cited from earlier work"}, "[4]": {"details": "known antioxidant; cited from earlier work"}, "[5]": {"details": "biological systems, foodstuff mixtures; cited from earlier work"}, "[6]": {"details": "0.56 g./kg., longer period, animals; cited from earlier work"}, "rats [7]": {"system": "rats", "details": "0.50 g./kg., 14 days; cited from earlier work"}, "solubility": {"assay": "solubility", "type": "physicochemical"}, "malignant tumors": {"system": "malignant tumors", "assay": "appearance of malignant tumors in animals treated with minimum irradiation doses for a long period", "type": "in vivo", "details": "versus irradiated untreated animals", "from_the_text": "Another important and unexpected property of the new substances is that they exert radiosensibilizing effect. […] On the basis of this property, the new compounds can also be used for the potentiating of the effect of irradiation therapy."}, "serum cholesterol": {"system": "serum cholesterol", "assay": "serum cholesterol lowering in rabbits treated with cholesterol", "type": "in vivo, rabbit", "details": "1 g. cholesterol per day, XAX 0.06 g./kg. daily, 70 or 105 days", "protocol": "Due to this fact they can also be used for the prophylaxis and treatment of arteriosclerosis. This effect of the new substances was investigated on rabbits treated with 1 g. of cholesterol per day. The animals were treated for 70 or 105 days with daily doses of 0.06 g./kg. of XAX. […] Using the hitherto-known antioxidants, this very favorable and important effect could not be reached at all."}, "rats [8]": {"system": "rats", "details": "rat, in vivo", "from_the_text": "(§1) Since the novel compounds are completely nontoxic, they can be used with great advantage in animal husbandry and in the food industry, as well as in therapy. On the basis of the investigations carried out on the acute and chronic toxicity of these new active agents, it can be stated that they are completely free of the disadvantages of the hitherto-known antioxidants mentioned above, first of all as regards their use in therapy."}, "[9]": {"system": "liver cirrhosis caused by carbon tetrachloride", "assay": "prophylactic activity against liver cirrhosis caused by carbon tetrachloride", "type": "in vivo"}, "rats [10]": {"system": "rats", "assay": "chronic toxicity of XAX, continuous administration to rats", "type": "in vivo, rat", "from_the_text": "as §1"}, "[11]": {"details": "90 days, versus untreated animals"}},
  "note": "Where a name gives a salt, the structure may show the parent alone.",
  "data": [
    {"compound": "Cc1cc(C(C)(C)C)c(O)c(C(C)(C)C)c1", "note": "[BHT]", "values": [
      {"measurement": "oxygen uptake (decrease of O2 pressure)", "setting": "[1]", "result": 16.5, "unit": "mmHg"},
      {"measurement": "Peroxide Number", "setting": "[1]", "result": 3.42},
      {"measurement": "activity in encephalomalacia of poultries versus EMQ", "setting": "[2]", "result": "far lower activity than EMQ"},
      {"measurement": "teratogeneous effect (anophthalmia)", "setting": "[3]", "result": "the appearance of anophthalmia was observed, indicating that the compound exerts a teratogeneous effect"}
    ]},
    {"compound": "c1ccc(Nc2ccc(Nc3ccccc3)cc2)cc1", "note": "[DPPD, N,N'-diphenyl-p-phenylenediamine]", "values": [
      {"measurement": "cancer-inducing effect", "setting": "[4]", "result": "cancer-inducing effect"},
      {"measurement": "activity as antioxidant", "setting": "[5]", "result": "relatively low activity"}
    ]},
    {"compound": "CCOc1ccc2c(c1)C(C)=CC(C)(C)N2", "note": "[EMQ, 6-ethoxy-2,2,4-trimethyl-1,2-dihydroquinoline]", "values": [
      {"measurement": "oxygen uptake (decrease of O2 pressure)", "setting": "[1]", "result": 23.5, "unit": "mmHg"},
      {"measurement": "Peroxide Number", "setting": "[1]", "result": 2.87},
      {"measurement": "appetite", "setting": "[6]", "result": "may cause appetite lowering"},
      {"measurement": "gain in weight", "setting": "[6]", "result": "lowers the gain in weight"},
      {"measurement": "appetite", "setting": "rats [7]", "result": "the appetite of the animals was lowered"},
      {"measurement": "size of the liver", "setting": "rats [7]", "result": "an increase in size of the liver was observed"}
    ]},
    {"compound": "CC1=CC(C)(C)Nc2ccc(Cc3ccc4c(c3)C(C)=CC(C)(C)N4)cc21", "note": "[Example 8, bis-(2,2,4-trimethyl-1,2-dihydroquinolyl-6)-methane]", "values": [
      {"measurement": "solubility in water and alcohol", "setting": "solubility", "result": "well soluble in water and alcohol"}
    ]},
    {"compound": "CC1=CC(C)(C)Nc2ccc(Cc3ccc4c(c3)C(C)=CC(C)(C)N4)cc21", "note": "[Example 9, bis-(2,2,4-trimethyl-1,2-dihydroquinolyl-6)-methane-dihydrochloride]", "values": [
      {"measurement": "solubility in water and alcohol", "setting": "solubility", "result": "soluble in water and alcohol"}
    ]},
    {"compound": "CC1=CC(C)(C)Nc2ccc(Cc3ccc4c(c3)C(C)=CC(C)(C)N4)cc21", "note": "[XAX, bis-(2,2,4-trimethyl-1,2-dihydroquinolyl-6)-methane]", "values": [
      {"measurement": "appearance of malignant tumors", "setting": "malignant tumors", "result": "could be suppressed"},
      {"measurement": "oxygen uptake (decrease of O2 pressure)", "setting": "[1]", "result": 11.5, "unit": "mmHg"},
      {"measurement": "Peroxide Number", "setting": "[1]", "result": 1.54},
      {"measurement": "cholesterol level of the blood", "setting": "serum cholesterol", "result": "the cholesterol level of the blood decreased to a great extent"},
      {"measurement": "toxic symptoms", "setting": "rats [8]", "result": "no toxic symptoms"},
      {"measurement": "prophylactic activity against liver cirrhosis", "setting": "[9]", "result": "great prophylactic activity"},
      {"measurement": "weight gain and blood picture", "setting": "rats [10]; [11]", "result": "Neither the weight gain nor the blood picture of the animals was harmfully affected"},
      {"measurement": "weight gain of some organs", "setting": "rats [10]; [11]", "result": "no excessive weight gain of some organs of the animals could be observed"},
      {"measurement": "damaging of tissues or cells", "setting": "rats [10]; daily 0.25 mg./kg., 3 weeks", "result": "no damaging of tissues or cells could be observed"}
    ]},
    {"compound": "CC1=CC(C)(C)Nc2ccc(Cc3ccc4c(c3)C(C)=CC(C)(C)N4)cc21", "note": "[sulfuric acid salt of XAX]", "values": [
      {"measurement": "solubility in water and alcohol", "setting": "solubility", "result": "soluble in water and alcohol"}
    ]}
  ]
}
